In patent EP4364730A1, “PHARMACEUTICAL COMPOSITION COMPRISING L-ACETYL CARNITINE AND BETA-CARYOPHYLLENE” (Chiesi Italia S.p.A., priority 2022, dated 2024) one finds maximum non-cytotoxic concentration data, which are given here for one molecule.

This series relates to HMC3 cell line. Briefly: Cell viability test (MTT assay). In kind it is cell-based, Homo sapiens, human. Particulars: HMC3 cells, tested 0.039 to 100 µM. The method, then: The American Type Culture Collection's HMC3 (CRL-3304) cell line was grown in the MEM growth medium supplemented with 10% fetal bovine serum (FBS), 100 U/mL penicillin, and 100 µg/mL streptomycin (complete medium). The cells were kept at 37 °C in a 5% CO2 incubator and grown up to 100% confluence before use. In particular, regarding BCP, cells were treated with this substance at concentrations ranging from 0.039 to 100 µM (9 concentrations). Regarding LAC, cells were treated with this substance at concentrations ranging from 0.06 to 30 mM (9 concentrations). […] The MTT cell viability test was performed by seeding 1 × 10^4 cells/well in a 96-multiwell and grown at 37 °C and 5% CO2. The next day, cells were treated with different concentrations of BCP and LAC and their combinations (Mix). […] The formazane crystals were then solubilized with 100 µL DMSO/well for 15 min and the absorbance was measured at the wavelength of 570 nm using a Multiskan™ GO microplate reader (Thermo Scientific Microplate Spectrophotometer). Finally, the cytotoxicity of the substances in combination was evaluated starting from the maximum non-cytotoxic concentrations of each molecule (BCP and LAC alone) (Table 1).

`C=C1CC/C=C(\C)CC[C@@H]2[C@@H]1CC2(C)C` [BCP, (1R,4E,9S)-4,11,11-trimethyl-8-methylidenebicyclo[7.2.0]undec-4-ene]: the maximum non-cytotoxic concentration came to 100 µM.
